Results published in PubChem BioAssay AID2060883 (Molecular Pharmacology Branch, DTP, NCI, 2025).
Several values for one entry are separate records, joined by “and”; a condition that tells them apart may be missing. Equal entries are not always repeated.

System: 843782-103-R-J1-PDC complex spheroid viability
Test: Anticancer human tumor 843782-103-R-J1-PDC patient-derived lung adenocarcinoma cell line growth inhibition [RAS]
Conditions: for viability, T/C: stronger effect = lower value
Outline: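 Tumour cells grown as complex spheroids with HUVEC endothelial cells and mesenchymal stem cells, treated with RAS pathway inhibitor combinations. Each agent spans half-log steps from near clinical Cmax, or 10 microM where Cmax is unknown.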

[1] = curve of first compound, second compound 0.000949 µM
[2] = curve of first compound, second compound 0.003 µM
[3] = curve of first compound, second compound 0.00949 µM
[4] = curve of first compound, second compound 0.03 µM
[5] = curve of first compound, second compound 0.0949 µM
[6] = curve of first compound, second compound 0.3 µM
[7] = second compound 0.000949 µM, first compound 0.0316 µM
[8] = second compound 0.000949 µM, first compound 0.1 µM
[9] = second compound 0.000949 µM, first compound 0.316 µM
[10] = second compound 0.000949 µM, first compound 1 µM
[11] = second compound 0.003 µM, first compound 0.0316 µM
[12] = second compound 0.003 µM, first compound 0.1 µM
[13] = second compound 0.003 µM, first compound 0.316 µM
[14] = second compound 0.003 µM, first compound 1 µM
[15] = second compound 0.00949 µM, first compound 0.0316 µM
[16] = second compound 0.00949 µM, first compound 0.1 µM
[17] = second compound 0.00949 µM, first compound 0.316 µM
[18] = second compound 0.00949 µM, first compound 1 µM
[19] = second compound 0.03 µM, first compound 0.0316 µM
[20] = second compound 0.03 µM, first compound 0.1 µM
[21] = second compound 0.03 µM, first compound 0.316 µM
[22] = second compound 0.03 µM, first compound 1 µM
[23] = second compound 0.0949 µM, first compound 0.0316 µM
[24] = second compound 0.0949 µM, first compound 0.1 µM
[25] = second compound 0.0949 µM, first compound 0.316 µM
[26] = second compound 0.0949 µM, first compound 1 µM
[27] = second compound 0.3 µM, first compound 0.0316 µM
[28] = second compound 0.3 µM, first compound 0.1 µM
[29] = second compound 0.3 µM, first compound 0.316 µM
[30] = second compound 0.3 µM, first compound 1 µM
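Further: viability read after seven days of compound exposure.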

## CCN1CCN(Cc2ccc(Nc3ncc(F)c(-c4cc(F)c5nc(C)n(C(C)C)c5c4)n3)nc2)CC1 + CCn1c(-c2cc(N3CCN(C)CC3)cnc2C(C)OC)c2c3cc(ccc31)-c1csc(n1)CC(NC(=O)C1CC1C)C(=O)N1CCCC(N1)C(=O)OCC(C)(C)C2
[1]
  IC50: 531 nM
[2]
  IC50: 122 nM
[3]
  IC50: < 3.16 nM
[4]
  IC50: < 3.16 nM
[5]
  IC50: < 3.16 nM
[6]
  IC50: < 3.16 nM
Second compound 0.000949 µM, first compound 0.00316 µM
  viability, T/C: 79.5%
Second compound 0.000949 µM, first compound 0.01 µM
  viability, T/C: 83.1%
[7]
  viability, T/C: 78.2%
[8]
  viability, T/C: 73%
[9]
  viability, T/C: 63.4%
[10]
  viability, T/C: 34.5%
Second compound 0.003 µM, first compound 0.00316 µM
  viability, T/C: 64%
Second compound 0.003 µM, first compound 0.01 µM
  viability, T/C: 66.3%
[11]
  viability, T/C: 57.1%
[12]
  viability, T/C: 52.2%
[13]
  viability, T/C: 41.8%
[14]
  viability, T/C: 29.9%
Second compound 0.00949 µM, first compound 0.00316 µM
  viability, T/C: 45.9%
Second compound 0.00949 µM, first compound 0.01 µM
  viability, T/C: 42.9%
[15]
  viability, T/C: 34.4%
[16]
  viability, T/C: 31.1%
[17]
  viability, T/C: 30.1%
[18]
  viability, T/C: 20.8%
Second compound 0.03 µM, first compound 0.00316 µM
  viability, T/C: 24.5%
Second compound 0.03 µM, first compound 0.01 µM
  viability, T/C: 22.6%
[19]
  viability, T/C: 21%
[20]
  viability, T/C: 20%
[21]
  viability, T/C: 18.2%
[22]
  viability, T/C: 17%
Second compound 0.0949 µM, first compound 0.00316 µM
  viability, T/C: 17.9%
Second compound 0.0949 µM, first compound 0.01 µM
  viability, T/C: 16.1%
[23]
  viability, T/C: 15.8%
[24]
  viability, T/C: 15.2%
[25]
  viability, T/C: 16.1%
[26]
  viability, T/C: 14.2%
Second compound 0.3 µM, first compound 0.00316 µM
  viability, T/C: 17.1%
Second compound 0.3 µM, first compound 0.01 µM
  viability, T/C: 12.4%
[27]
  viability, T/C: 14%
[28]
  viability, T/C: 12.3%
[29]
  viability, T/C: 13.9%
[30]
  viability, T/C: 12.3%

## CC(Nc1ccc2c(c1)OCCn1cc(N3C(=O)OCC3C(F)F)nc1-2)C(N)=O (stereo not drawn)
Compound 0.0316 µM
  viability, T/C: 95.9% [middle of 4 runs]
Compound 0.316 µM
  viability, T/C: 50.3% [middle of 4 runs]
Compound 1 µM
  viability, T/C: 38.3% [middle of 4 runs]
Compound 3.16 µM
  viability, T/C: 26.1% [middle of 4 runs]
Compound 10 µM
  viability, T/C: 16.3% [middle of 4 runs]

## CCc1c2c(nc3ccc(O)cc13)-c1cc3c(c(=O)n1C2)COC(=O)[C@]3(O)CC + CCn1c(-c2cc(N3CCN(C)CC3)cnc2C(C)OC)c2c3cc(ccc31)-c1csc(n1)CC(NC(=O)C1CC1C)C(=O)N1CCCC(N1)C(=O)OCC(C)(C)C2
[1]
  IC50: 1.49 nM
[2]
  IC50: 0.963 nM
[3]
  IC50: < 0.949 nM
[4]
  IC50: < 0.949 nM
[5]
  IC50: < 0.949 nM
[6]
  IC50: < 0.949 nM
Second compound 0.000949 µM, first compound 0.000949 µM
  viability, T/C: 68.4%
Second compound 0.000949 µM, first compound 0.003 µM
  viability, T/C: 21.8%
Second compound 0.000949 µM, first compound 0.00949 µM
  viability, T/C: 4.84%
Second compound 0.000949 µM, first compound 0.03 µM
  viability, T/C: 2.16%
Second compound 0.000949 µM, first compound 0.0949 µM
  viability, T/C: 1.13%
Second compound 0.000949 µM, first compound 0.3 µM
  viability, T/C: 0.96%
Second compound 0.003 µM, first compound 0.000949 µM
  viability, T/C: 50.8%
Second compound 0.003 µM, first compound 0.003 µM
  viability, T/C: 20.9%
Second compound 0.003 µM, first compound 0.00949 µM
  viability, T/C: 5.17%
Second compound 0.003 µM, first compound 0.03 µM
  viability, T/C: 1.82%
Second compound 0.003 µM, first compound 0.0949 µM
  viability, T/C: 1.45%
Second compound 0.003 µM, first compound 0.3 µM
  viability, T/C: 1.05%
Second compound 0.00949 µM, first compound 0.000949 µM
  viability, T/C: 38%
Second compound 0.00949 µM, first compound 0.003 µM
  viability, T/C: 17.9%
Second compound 0.00949 µM, first compound 0.00949 µM
  viability, T/C: 5.27%
Second compound 0.00949 µM, first compound 0.03 µM
  viability, T/C: 2.03%
Second compound 0.00949 µM, first compound 0.0949 µM
  viability, T/C: 2.15%
Second compound 0.00949 µM, first compound 0.3 µM
  viability, T/C: 0.92%
Second compound 0.03 µM, first compound 0.000949 µM
  viability, T/C: 18.9%
Second compound 0.03 µM, first compound 0.003 µM
  viability, T/C: 15.3%
Second compound 0.03 µM, first compound 0.00949 µM
  viability, T/C: 5.86%
Second compound 0.03 µM, first compound 0.03 µM
  viability, T/C: 2.53%
Second compound 0.03 µM, first compound 0.0949 µM
  viability, T/C: 1.38%
Second compound 0.03 µM, first compound 0.3 µM
  viability, T/C: 0.97%
Second compound 0.0949 µM, first compound 0.000949 µM
  viability, T/C: 14.2%
Second compound 0.0949 µM, first compound 0.003 µM
  viability, T/C: 13.4%
Second compound 0.0949 µM, first compound 0.00949 µM
  viability, T/C: 5.71%
Second compound 0.0949 µM, first compound 0.03 µM
  viability, T/C: 2.6%
Second compound 0.0949 µM, first compound 0.0949 µM
  viability, T/C: 1.4%
Second compound 0.0949 µM, first compound 0.3 µM
  viability, T/C: 1.46%
Second compound 0.3 µM, first compound 0.000949 µM
  viability, T/C: 13.5%
Second compound 0.3 µM, first compound 0.003 µM
  viability, T/C: 11.7%
Second compound 0.3 µM, first compound 0.00949 µM
  viability, T/C: 5.29%
Second compound 0.3 µM, first compound 0.03 µM
  viability, T/C: 2.41%
Second compound 0.3 µM, first compound 0.0949 µM
  viability, T/C: 1.96%
Second compound 0.3 µM, first compound 0.3 µM
  viability, T/C: 0.79%

## CC(Nc1ccc2c(c1)OCCn1cc(N3C(=O)OCC3C(F)F)nc1-2)C(N)=O (stereo not drawn) + CCn1c(-c2cccnc2C(C)OC)c2c3cc(ccc31)N1CCOC(CC(NC(=O)C(C(C)C)N(C)C(=O)C3(F)CCN(C(=O)C#CC(C)(C)N(C)C)CC3)C(=O)N3CCCC(N3)C(=O)OCC(C)(C)C2)C1
[1]
  IC50: 35.2 nM
[2]
  IC50: < 31.6 nM
[3]
  IC50: 38.4 nM
[4]
  IC50: 34.8 nM
[5]
  IC50: 42.1 nM
[6]
  IC50: < 31.6 nM
[7]
  viability, T/C: 52.9%
[8]
  viability, T/C: 31.6%
[9]
  viability, T/C: 31.5%
[10]
  viability, T/C: 16.4%
Second compound 0.000949 µM, first compound 3.16 µM
  viability, T/C: 14.3%
Second compound 0.000949 µM, first compound 10 µM
  viability, T/C: 7.59%
[11]
  viability, T/C: 44.2%
[12]
  viability, T/C: 36.5%
[13]
  viability, T/C: 25.6%
[14]
  viability, T/C: 25.1%
Second compound 0.003 µM, first compound 3.16 µM
  viability, T/C: 14.9%
Second compound 0.003 µM, first compound 10 µM
  viability, T/C: 9.07%
[15]
  viability, T/C: 53%
[16]
  viability, T/C: 37.7%
[17]
  viability, T/C: 23.8%
[18]
  viability, T/C: 19.6%
Second compound 0.00949 µM, first compound 3.16 µM
  viability, T/C: 14.1%
Second compound 0.00949 µM, first compound 10 µM
  viability, T/C: 8.01%
[19]
  viability, T/C: 52%
[20]
  viability, T/C: 34.8%
[21]
  viability, T/C: 24.9%
[22]
  viability, T/C: 18.9%
Second compound 0.03 µM, first compound 3.16 µM
  viability, T/C: 13.8%
Second compound 0.03 µM, first compound 10 µM
  viability, T/C: 7.4%
[23]
  viability, T/C: 56%
[24]
  viability, T/C: 32.5%
[25]
  viability, T/C: 24.1%
[26]
  viability, T/C: 21.1%
Second compound 0.0949 µM, first compound 3.16 µM
  viability, T/C: 13.9%
Second compound 0.0949 µM, first compound 10 µM
  viability, T/C: 7.55%
[27]
  viability, T/C: 50.3%
[28]
  viability, T/C: 35.7%
[29]
  viability, T/C: 25.6%
[30]
  viability, T/C: 19.4%
Second compound 0.3 µM, first compound 3.16 µM
  viability, T/C: 10.7%
Second compound 0.3 µM, first compound 10 µM
  viability, T/C: 6.72%

## C=CC(=O)Nc1cc(Nc2nccc(-c3cn(C)c4ccccc34)n2)c(OC)cc1N(C)CCN(C)C
Compound 0.00316 µM
  viability, T/C: 101% [middle of 4 runs]
Compound 0.01 µM
  viability, T/C: 99.7% [middle of 4 runs]
Compound 0.0316 µM
  viability, T/C: 95.9% [middle of 4 runs]
Compound 0.1 µM
  viability, T/C: 102% (2×) and 84% and 95.2%
Compound 0.316 µM
  viability, T/C: 91.4% [middle of 4 runs]
Compound 1 µM
  viability, T/C: 68% [middle of 4 runs]
Curve of compound
  IC50: > 1000 nM
